According to patent US7223759B2, “Antibacterial 3,5-diaminopiperidine-substituted aromatic and heteroaromatic compounds” (Anadys Pharmaceuticals, Inc., priority 2003, dated 2007):

Each compound was assayed on Escherichia coli (ATCC25922) or Staphylococcus aureus (ATCC25923) (assay: Antibacterial MIC, microdilution method in Mueller-Hinton medium). Conditions: Escherichia coli, 18 h, MIC in E. coli or S. aureus; two-fold serial dilutions 64 to 0.5 μg/ml in duplicate; 18 hours of incubation at 35° C.; read-out: Potency (MIC).
Format: cell-based
Procedure, shortened: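 Read after 18 h incubation at 35° C, MIC is the lowest compound level that blocked growth. Compounds were tested in duplicate over 64–0.5 μg/ml two-fold dilutions using Mueller-Hinton microdilution per NCCLS standard.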

Structure (SMILES) | MIC
CC(C)CC(=O)Nc1ccc(Nc2nc(N3CCCCC3)nc(N3CCCCC3)n2)cc1O.Cl [N-[3-hydroxy-4-(3-methyl-butyrylamino)-phenylk]-4,6-Bis-((3R,5S)-3,5-diamino-piperidin-1-yl)-[1,3,5]triazine-2-amine] | < 64 µg/mL
Cl.O=C(Nc1ccc(O)cc1)c1ccc(Nc2nc(N3CCCCC3)nc(N3CCCCC3)n2)cc1O [N-[3-hydroxy-4-(4-hydroxy-phenylcarbamoyl)-phenyl]-4,6-Bis((3R,5S)-3,5-0diamino-piperidin-1-yl)-[1,3,5]triazine-2-amine] | < 16 µg/mL
Cc1cccc(NC(=O)c2ccc(Nc3nc(N4CCCCC4)nc(N4CCCCC4)n3)cc2O)n1.Cl [N-[3-hydroxy-4-(6-methyl-pyridin-2-ylcarbamoyl)-phenyl]-4,6-Bis-((3R,5S)-3,5-diamino-piperidin-1-yl)-[1,3,5]triaazine-2-amine] | < 64 µg/mL
Cl.NS(=O)(=O)c1ccc(NC(=O)c2ccc(Nc3nc(N4CCCCC4)nc(N4CCCCC4)n3)cc2O)cc1 [N-[3-hydroxy-4-{4-sulfamoyl-phenylcarbamoyl)-phenyl]-4,6-Bis-((3R,5S)-3,5-diamino-piperidin-1-yl)-[1,3,5]triazine-22-amine] | > 64 µg/mL
Cc1cc(C)c(S(=O)(=O)Nc2ccc(Nc3nc(N4CCCCC4)nc(N4CCCCC4)n3)cc2O)c(C)c1.Cl [N-[3-hydroxy-(2,4,6-trimethyl-benzenesulfonylamino)-phenyl]-4,6-Bis-((3R,5S)-3,5-diamino-pperidin-1-yl)-[1,3,5]triazine-2-amine] | < 64 µg/mL
Cl.O=S(=O)(c1cc(Nc2nc(N3CCCCC3)nc(N3CCCCC3)n2)ccc1N1CCOCC1)N1CCOCC1 [N-[3-morpholine-4-sulfonyl)-4-morpholin-4-yl-phenyl]-4,6-Bis-((3R,5S)-3,5-diamino-piperidin-1-yl)-[1,3,5]triazine-2-amine] | > 64 µg/mL

Same assay, conditions: Escherichia coli, 18 h, read-out: Potency (MIC)

Structure (SMILES) | MIC
N[C@@H]1C[C@H](N)CN(c2nc(Nc3ccc(C(=O)Nc4cccc(CO)c4)c(O)c3)nc(N3C[C@H](N)C[C@H](N)C3)n2)C1 [N-[3-hydroxy-4-(3-hydroxymethyl-phenylcarbamoyl)-phenyl]-4,6-Bis-((3R,5S)-3,5-diamino-piperidin-1-yl)-[1,3,5]triazine-2-amine] | < 64 µg/mL
COc1cccc(S(=O)(=O)Nc2ccc(Nc3nc(N4C[C@H](N)C[C@H](N)C4)nc(N4C[C@H](N)C[C@H](N)C4)n3)cc2O)c1 [N-[3-hydroxy-4-(3-methoxy-benzenesulfonylamino)-phenyl]-4,6-Bis-((3R,5S)-3,5-diamino-piperidin-1-yl)-[1,3,5]triazine-2-amine] | < 64 µg/mL
N[C@@H]1C[C@H](N)CN(c2nc(Nc3ccc(C(=O)N4CCNC(=O)C4)c(O)c3)nc(N3C[C@H](N)C[C@H](N)C3)n2)C1 [N-[3-hydroxy-4-(3-oxo-piperazine-1-carbonyl)-phenyl]-4,6-Bis-((3R,5S)-3,5-diamino-piperidin-1-yl)-[1,3,5]triazine-2-amine] | > 64 µg/mL
N[C@@H]1C[C@H](N)CN(c2nc(Nc3ccc(NC(=O)C=Cc4ccccc4)c(O)c3)nc(N3C[C@H](N)C[C@H](N)C3)n2)C1 [N-[3-hydroxy-4-(3-phenyl-acryloylamino)-phenyl]-4,6-Bis-((3R,5S)-3,5-diamino-piperidin-1-yl)-[1,3,5]triazine-2-amine] | < 16 µg/mL
N[C@@H]1C[C@H](N)CN(c2nc(Nc3ccc(C(=O)Nc4cccc(OC(F)(F)F)c4)c(O)c3)nc(N3C[C@H](N)C[C@H](N)C3)n2)C1 [N-[3-hydroxy-4-(3-trifluoromethoxy-phenylcarbamoyl)-phenyl]-4,6-Bis-((3R,5S)-3,5-diamino-piperidin-1-yl)-[1,3,5]triazine-2-amine] | < 16 µg/mL
N[C@@H]1C[C@H](N)CN(c2nc(Nc3ccc(C(=O)Nc4cccc(C(F)(F)F)c4)c(O)c3)nc(N3C[C@H](N)C[C@H](N)C3)n2)C1 [N-[3-hydroxy-4-(3-trifluoromethyl-phenylcarbamoyl)-phenyl]-4,6-Bis-((3R,5S)-3,5-diamino-piperidin-1-yl)-[1,3,5]triazine-2-amine] | < 16 µg/mL
N[C@@H]1C[C@H](N)CN(c2nc(Nc3ccc(C(=O)Nc4cccc(SC(F)(F)F)c4)c(O)c3)nc(N3C[C@H](N)C[C@H](N)C3)n2)C1 [N-[3-hydroxy-4-(3-trifluoromethylsulfanyl-phenylcarbamoyl)-phenyl]-4,6-Bis-((3R,5S)-3,5-diamino-piperidin-1-yl)-[1,3,5]triazine-2-amine] | < 16 µg/mL
COc1ccc(C(=O)Nc2ccc(Nc3nc(N4C[C@H](N)C[C@H](N)C4)nc(N4C[C@H](N)C[C@H](N)C4)n3)cc2O)cc1 [N-[3-hydroxy-4-(4-methoxy-benzoylamino)-phenyl]-4,6-Bis-((3R,5S)-3,5-diamino-piperidin-1-yl)-[1,3,5]triazine-2-amine] | < 16 µg/mL
COc1ccc(NC(=O)c2ccc(Nc3nc(N4C[C@H](N)C[C@H](N)C4)nc(N4C[C@H](N)C[C@H](N)C4)n3)cc2O)cc1 [N-[3-hydroxy-4-(4-methoxy-phenylcarbamoyl)-phenyl]-4,6-Bis-((3R,5S)-3,5-diamino-piperidin-1-yl)-[1,3,5]triazine-2-amine] | < 64 µg/mL
Cc1cc(=O)oc2cc(NC(=O)c3ccc(Nc4nc(N5C[C@H](N)C[C@H](N)C5)nc(N5C[C@H](N)C[C@H](N)C5)n4)cc3O)ccc12 [N-[3-hydroxy-4-(4-methyl-2-oxo-2H-chromen-7-ylcarbamoyl)-phenyl]-4,6-Bis-((3R,5S)-3,5-diamino-piperidin-1-yl)-[1,3,5]triazine-2-amine] | < 16 µg/mL
Cc1ccc(C(=O)Nc2ccc(Nc3nc(N4C[C@H](N)C[C@H](N)C4)nc(N4C[C@H](N)C[C@H](N)C4)n3)cc2O)cc1 [N-[3-hydroxy-4-(4-methyl-benzoylamino)-phenyl]-4,6-Bis-((3R,5S)-3,5-diamino-piperidin-1-yl)-[1,3,5]triazine-2-amine] | < 16 µg/mL
CCCCC(=O)Nc1ccc(S(=O)(=O)Nc2ccc(Nc3nc(N4C[C@H](N)C[C@H](N)C4)nc(N4C[C@H](N)C[C@H](N)C4)n3)cc2O)cc1 [N-[3-hydroxy-4-(4-pentanoylamino-benzenesulfonylamino)-phenyl]-4,6-Bis-((3R,5S)-3,5-diamino-piperidin-1-yl)-[1,3,5]triazine-2-amine] | < 64 µg/mL
N[C@@H]1C[C@H](N)CN(c2nc(Nc3ccc(C(=O)Nc4ccc(SC(F)(F)F)cc4)c(O)c3)nc(N3C[C@H](N)C[C@H](N)C3)n2)C1 [N-[3-hydroxy-4-(4-trifluoromethylsulfanyl-phenylcarbamoyl)-phenyl]-4,6-Bis-((3R,5S)-3,5-diamino-piperidin-1-yl)-[1,3,5]triazine-2-amine] | < 64 µg/mL
CC(C)CCCCCC(=O)Nc1ccc(Nc2nc(N3C[C@H](N)C[C@H](N)C3)nc(N3C[C@H](N)C[C@H](N)C3)n2)cc1O [N-[3-hydroxy-4-(7-methyl-octanoylamino)-phenyl]-4,6-Bis-((3R,5S)-3,5-diamino-piperidin-1-yl)-[1,3,5]triazine-2-amine] | < 16 µg/mL
N[C@@H]1C[C@H](N)CN(c2nc(Nc3ccc(C(=O)N4CCOCC4)c(O)c3)nc(N3C[C@H](N)C[C@H](N)C3)n2)C1 [N-[3-hydroxy-4-(morpholine-4-carbonyl)-phenyl]-4,6-Bis-((3R,5S)-3,5-diamino-piperidin-1-yl)-[1,3,5]triazine-2-amine] | > 64 µg/mL
